This note sets out measurements from PubChem BioAssay (NCI).

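48-hour exposure; five concentrations; linearly interpolated endpoints. At the GI50, growth is halved. TGI denotes the concentration required for complete inhibition of growth.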

Test systems include SW-620 colon; HT29 colon; SF-268 CNS; M14 melanoma; LOX IMVI melanoma; NCI-H460 lung; PC-3 prostate; HOP-92 NSCLC.
What all share (assay): NCI tumour cell line growth inhibition, 48 h

Turning to `CS(=O)(=O)OCC1OC(n2ccc(NC(=O)c3ccccc3)nc2=O)CC1OS(C)(=O)=O` (centres undefined), the TGI with SW-620 colon, in the assay on HT29 colon, in the assay with SF-268 CNS, in the assay with M14 melanoma, in the assay on LOX IMVI melanoma and in the assay on NCI-H460 lung was more than 100 µM in each case. Moreover, the TGI in the assay with PC-3 prostate was more than 100 µM.

For `CCCCCCc1cc2cc(-c3nc4ccccc4[nH]3)c(=Nc3ccccc3C)oc2cc1O`, the GI50 was 2.04 µM in the assay with SW-620 colon; more than 100 µM with HT29 colon; 2.65 µM with SF-268 CNS; 1.85 µM in the assay with M14 melanoma; 1.87 µM in the assay on LOX IMVI melanoma; 0.492 µM with HOP-92 NSCLC. The GI50 was 2.12 µM with NCI-H460 lung and 2.3 µM with PC-3 prostate. Also, the TGI in the assay on SW-620 colon is 4.91 µM; in the assay with HT29 colon, more than 100 µM; in the assay on SF-268 CNS it was 8.45 µM; in the assay on M14 melanoma, 3.6 µM; in the assay with LOX IMVI melanoma it was 3.74 µM; with HOP-92 NSCLC, 5.12 µM. Further, the results for the TGI in the assay with NCI-H460 lung and with PC-3 prostate were 4.77 µM and 7.98 µM, respectively.

`CCN1/C(=C/C=C/c2n(-c3ccccc3)c3ccc(-c4nc5ccccc5s4)cc3[n+]2CC)N(c2ccccc2)c2ccc(-c3nc4ccccc4s3)cc21`: the GI50 is 0.445 µM in the assay on SW-620 colon; 0.333 µM with HT29 colon; 0.525 µM with SF-268 CNS; 0.437 µM in the assay on M14 melanoma; 1.22 µM in the assay with LOX IMVI melanoma; 0.527 µM in the assay with NCI-H460 lung. Besides, the GI50 in the assay on PC-3 prostate is 0.284 µM. The TGI is more than 50 µM in the assay on SW-620 colon; more than 50 µM in the assay on HT29 colon; more than 50 µM with SF-268 CNS; 4.62 µM in the assay on M14 melanoma; more than 50 µM in the assay on LOX IMVI melanoma; more than 50 µM in the assay with NCI-H460 lung. In the assay with PC-3 prostate, this compound gave a TGI of more than 50 µM.

For the compound `Nc1ccccc1-c1ccc([N+](=O)[O-])cc1`, the GI50 with SW-620 colon was 19.3 µM; in the assay on HT29 colon, 54.4 µM; with SF-268 CNS it was 12.9 µM; in the assay on M14 melanoma it was 97.7 µM; in the assay with LOX IMVI melanoma, 37.4 µM; in the assay on HOP-92 NSCLC, 17.9 µM. Further, the GI50 in the assay with NCI-H460 lung was 4.44 µM; in the assay on PC-3 prostate it was 15 µM. The TGI in the assay on SW-620 colon is more than 100 µM; in the assay on HT29 colon it was more than 100 µM; in the assay with SF-268 CNS, more than 100 µM; in the assay on M14 melanoma, more than 100 µM; in the assay with LOX IMVI melanoma it was more than 100 µM; in the assay on HOP-92 NSCLC, 97.6 µM. Further, the TGI with NCI-H460 lung and in the assay with PC-3 prostate was more than 100 µM in each case.

For the compound `N#C/C(=N\Nc1ccc(Cl)cc1)C(=O)Nc1cc(-c2ccccc2)nn1-c1ccccc1`, the GI50 in the assay on SW-620 colon was 3.11 µM; with HT29 colon, 3.32 µM; in the assay on SF-268 CNS, 2.65 µM; in the assay with M14 melanoma, 3.7 µM; in the assay with HOP-92 NSCLC it was 1.07 µM; in the assay with NCI-H460 lung it was 2.51 µM. Moreover, in the assay on PC-3 prostate, the GI50 was 2.4 µM. Moreover, the TGI was more than 100 µM in the assay on SW-620 colon; more than 100 µM with HT29 colon; more than 100 µM in the assay on SF-268 CNS; more than 100 µM in the assay with M14 melanoma; 4.49 µM with HOP-92 NSCLC; more than 100 µM with NCI-H460 lung. This compound also registered a TGI in the assay with PC-3 prostate of more than 100 µM.

On to `Cc1cc(Cl)cc2c(N=Nc3ccccc3[N+](=O)[O-])c(O)[nH]c12`, for which the TGI with SW-620 colon, in the assay on SF-268 CNS, with M14 melanoma, in the assay with LOX IMVI melanoma, with HOP-92 NSCLC and in the assay with NCI-H460 lung was more than 100 µM each time. Further, in the assay with PC-3 prostate, the TGI was more than 100 µM.

For the compound `Cc1ccc(NC(=O)Cc2ccc(/C=C/C(=O)c3ncc[nH]3)cc2)cc1`, the GI50 was 5.22 µM in the assay on SW-620 colon; 0.955 µM in the assay with HT29 colon; 5.32 µM in the assay on SF-268 CNS; 1.29 µM with LOX IMVI melanoma; 18.5 µM in the assay with HOP-92 NSCLC; 6.32 µM in the assay with NCI-H460 lung. Further, the GI50 in the assay on PC-3 prostate was 7.1 µM. In addition, the TGI was more than 25 µM in the assay with SW-620 colon; 5.09 µM in the assay with HT29 colon; more than 25 µM with SF-268 CNS; 6.76 µM in the assay with LOX IMVI melanoma; more than 25 µM in the assay on HOP-92 NSCLC; more than 25 µM in the assay on NCI-H460 lung. This compound showed a TGI in the assay with PC-3 prostate of more than 25 µM.

Turning to `COc1cc(-c2nc3sccn3c2-c2ccnc(NCCNS(=O)(=O)c3ccc(Cl)cc3)n2)ccc1F`, the GI50 with SW-620 colon is 10.8 µM; in the assay with HT29 colon, 4.28 µM; in the assay on SF-268 CNS, 5.75 µM; in the assay with M14 melanoma, 3.62 µM; in the assay with LOX IMVI melanoma it was 3.39 µM; in the assay on NCI-H460 lung, 5.16 µM. Further, in the assay on PC-3 prostate, the GI50 was 0.577 µM. The TGI with SW-620 colon, in the assay with HT29 colon, with SF-268 CNS, in the assay with M14 melanoma, with LOX IMVI melanoma and with NCI-H460 lung was more than 100 µM each time. For the same compound, the TGI in the assay with PC-3 prostate was more than 100 µM.

Consider `COC(=O)C1=C(C)NC(C)=C(C(=O)OC)C1/C=C(\Cl)c1ccc(Cl)c(Cl)c1`, for which the GI50 with SW-620 colon is 12.2 µM; with HT29 colon, 4.51 µM; with SF-268 CNS it was 13.1 µM; in the assay on M14 melanoma, 16.6 µM; with LOX IMVI melanoma, 11.4 µM; in the assay on NCI-H460 lung it was 6.48 µM. Further, the GI50 with PC-3 prostate was 10.8 µM. For the same compound, the TGI with SW-620 colon came to 28.7 µM; with HT29 colon it was 18.5 µM; in the assay with SF-268 CNS, 28.4 µM; with M14 melanoma it was 30.2 µM; in the assay with LOX IMVI melanoma, 23.5 µM; with NCI-H460 lung it was 23.4 µM. The same compound returned a TGI with PC-3 prostate of 23.1 µM.

On to `Nc1ncnc2c1ncn2Cc1ccc(C23CC4CC(CC(C4)C2)C3)c(OCc2cc(F)c(F)cc2F)c1`, for which the GI50 with SW-620 colon is 7.25 µM; in the assay with HT29 colon, 12 µM; with SF-268 CNS, 8.57 µM; with LOX IMVI melanoma it was 5.36 µM; in the assay on HOP-92 NSCLC, 4.63 µM; with NCI-H460 lung it was 4.33 µM. In the assay with PC-3 prostate, the GI50 is 2.17 µM. Moreover, the TGI is more than 100 µM with SW-620 colon; more than 100 µM in the assay on HT29 colon; more than 100 µM with SF-268 CNS; more than 100 µM in the assay with LOX IMVI melanoma; 32.7 µM in the assay with HOP-92 NSCLC; more than 100 µM in the assay with NCI-H460 lung. The compound further returned a TGI in the assay with PC-3 prostate of 10.9 µM.

In the case of `CC(C)(O)C#Cc1ccc(/C=C/C(=O)c2ccccc2)s1`, the GI50 in the assay on SW-620 colon was 19.5 µM; in the assay on HT29 colon, 13.5 µM; in the assay on SF-268 CNS it was 16.7 µM; in the assay on LOX IMVI melanoma it was 13.8 µM; in the assay with HOP-92 NSCLC, 13.6 µM; with NCI-H460 lung it was 17.3 µM. Also, the GI50 in the assay with PC-3 prostate was 13.6 µM. Further, the TGI in the assay on SW-620 colon was 40.9 µM; with HT29 colon, 29.9 µM; with SF-268 CNS, 32.8 µM; in the assay on LOX IMVI melanoma, 26.7 µM; in the assay on HOP-92 NSCLC, 27.1 µM; in the assay with NCI-H460 lung, 33.5 µM. In addition, the TGI in the assay with PC-3 prostate stood at 29.7 µM.

Regarding `CCOC(=O)/C(=N\OC)C(O)C(F)(F)F` (centres undefined), the TGI with SW-620 colon, in the assay with HT29 colon, with SF-268 CNS, with M14 melanoma, with LOX IMVI melanoma and in the assay with PC-3 prostate was more than 100 µM throughout.

Consider `COc1cc2c(cc1OCCCCCOc1cc3c(cc1OC)C(=O)N1CC(F)C[C@H]1C=N3)N=C[C@@H]1CC(F)CN1C2=O` (some centres undefined), for which the GI50 in the assay on SW-620 colon is 0.0701 µM; in the assay with HT29 colon it was 0.246 µM; in the assay with SF-268 CNS it was less than 0.01 µM; with M14 melanoma, 0.0275 µM; in the assay with NCI-H460 lung, less than 0.01 µM; in the assay with PC-3 prostate it was 0.295 µM. In addition, the TGI in the assay on SW-620 colon is 0.452 µM; with HT29 colon, more than 58.6 µM; with SF-268 CNS, 1.19 µM; with M14 melanoma, 0.272 µM; in the assay with NCI-H460 lung, 0.143 µM; in the assay on PC-3 prostate, 1.49 µM.

As for `O=c1c2ccccc2c(Br)c(Br)c2ccccc12`, the GI50 in the assay with SW-620 colon was 1.09 µM; in the assay with HT29 colon, 3.04 µM; in the assay on SF-268 CNS, 8.89 µM; with M14 melanoma it was 4.8 µM; with LOX IMVI melanoma, 2.22 µM; with NCI-H460 lung, 14.5 µM. The GI50 with PC-3 prostate was 10.1 µM. Moreover, the TGI came out at 3.13 µM in the assay on SW-620 colon; 8.13 µM with HT29 colon; 25 µM in the assay with SF-268 CNS; 16.3 µM with M14 melanoma; 5.77 µM in the assay on LOX IMVI melanoma; 34.5 µM with NCI-H460 lung. The same compound returned a TGI in the assay on PC-3 prostate of 30.2 µM.

As to `c1ccc2c(c1)sc1c3cnccc3ccc21`, the TGI in the assay on SW-620 colon, in the assay on HT29 colon, in the assay on SF-268 CNS, with M14 melanoma, in the assay with LOX IMVI melanoma and with NCI-H460 lung was more than 100 µM throughout.

For `O=C(Nc1ccccc1)c1nn(-c2cc(S(=O)(=O)O)c([N+](=O)[O-])cc2Cl)[n+](-c2cc(S(=O)(=O)[O-])c([N+](=O)[O-])cc2Cl)n1`, the TGI with SW-620 colon, in the assay on HT29 colon, with SF-268 CNS, with M14 melanoma, with LOX IMVI melanoma and in the assay on NCI-H460 lung was more than 100 µM in each case. Further, the TGI in the assay on PC-3 prostate is more than 100 µM.
